Measured values reported in US20220062317A1, “NA+/K+ ATPASE INHIBITORS FOR USE IN THE PREVENTION OR TREATMENT OF METASTASIS” (UNIVERSITÄT BASEL, priority 2018, published 2022).
“Also recorded” adds a separate entry of the source. Where a name gives a salt, the structure may show the parent alone.

What was measured:
BR16 CTC-derived cells = experiment: FDA-approved compound screen for CTC cluster dissociation (high content imaging); format: cell-based, human; settings: even at lowest concentration tested (0.1 μM), 2 days, hypoxia
Description: In order to identify actionable vulnerabilities of CTC clusters, and to test whether the epigenetic and transcriptional features of clustered CTCs are reversible upon cluster dissociation into single cells the following steps were undertaken. First, the expression of all known cell-cell junction (CCJ) components in patient samples obtained from normal breast (TGCA REF), breast cancer (TOGA REF), single CTCs and CTC clusters were assessed (Aceto et al. Cell 2014). While breast cancer cells tend to only partially reduce their CCJ repertoire compared to normal breast cells, CTCs express only a small fraction of CCJ components, likely as a consequence to their increased motility. Yet, CTC clusters retain a higher number of CCJs as compared to single CTCs. […] To this end, 2′486 FDA-approved compounds were evaluated for their ability to dissociate clusters of human breast CTC-derived cells. Cluster dissociation was assessed using a high content screening microscope and comparing cells treated with each individual compound to steady state clustered BR16 cells and 40 μm-filtered BR16 single cell suspension as negative and positive controls, respectively (FIG. 4a). […] For the majority of the 2′486 FDA-approved compounds, when using a 5 μM concentration for 2 days in hypoxic conditions, no detectable reduction in cell viability (>70% viability) nor mean cluster size (>450 μm2) in BR16 CTC-derived cells was observed. […] These compounds include inhibitors of Na^+/K^+ ATPases (n=6), HDACs (n=2), nucleotide biosynthesis (n=5), kinases (n=4), GPCRs (n=2), cholesterol biosynthesis (n=1), nuclear export (n=1), tubulin (n=9), as well as DNA binding compounds (n=8) and antibiotics (n=1).
A library containing 2,486 FDA-approved compounds was purchased from the Nexus Platform ETH Zurich. Each compound was resuspended using CTC medium at a 15 μM concentration and 20 μl were aliquoted in duplicate in a total of 64 Flat Bottom Clear Ultra Low attachment 96-well plates (Corning, Cat #3474).
To reduce cluster size in CTC derived cell lines, a 40 μm cell strainer was used (Corning, Cat #431750). […] Plates were incubated in hypoxia (5% oxygen) for 2 days and then 20 μl were transferred into a 96 well Black/clear Tissue culture treated plate (BD Falcon, Cat #353219) containing 40 μl of D-PBS (Invitrogen, Cat #14190169) and stained for 1 hr at 37° C. with a final concentration of 4 μM Hoechst 34580 (Invitrogen, Cat #H21486), 2 μM TMRM (Invitrogen, Cat #T668) and 4 μM TOTO-3 (Invitrogen, Cat #T3604). For each plate, two positive controls (non-treated cells) and two negative controls (non-treated and […] cells) were included. Z-factors were calculated per individual plate using the following formula: Z′=1−3(σs+σc)/|μs−μc|^3 (σ: standard deviation, μ: mean, s: positive control and c: negative control) (Martin et al., PLoS One 9, e88338, 2014) and ranged between 0.62-0.937. Plates were scanned using Operetta High Content Imaging System (Perkin Elmer) and cluster analysis was performed using Harmony High Content Imaging and Analysis Software (Perkin Elmer).

[1] = test system: BRx50 human CTC-derived cells; experiment: as above; format: cell-based; settings: even at lowest concentration tested (0.1 μM)
LM2 xenografts = experiment: LM2 xenograft, spontaneous CTC clusters and metastasis; format: in vivo, NSG mice; settings: LM2 xenograft, digoxin 2 mg/kg vs vehicle
BR16 xenografts = experiment: BR16 xenograft (mammary fat pad), spontaneous CTC clusters and metastasis; format: in vivo, NSG mice; settings: digoxin 2 mg/kg vs vehicle
Description: Blood specimens for CTC analysis were obtained from University Hospital Basel after informed patient consent according to protocol EKNZ BASEC 2016-00067 and EK 321/10, which received ethical approval from the Swiss authorities (EKNZ, Ethics Committee northwest/central Switzerland). An average of 7.5 ml of blood per patient was drawn in EDTA vacutainers. Within 1 hr from blood draw, the blood was processed through Parsortix GEN3D6.5 Cell Separation Cassette (Angle Europe). For mouse studies, blood was retrieved via cardiac puncture and 1 ml of blood was similarly processed through a Parsortix device. Captured CTCs were further stained on Parsortix cassette with EpCAM-AF488 conjugated (CellSignaling, Cat #CST5198), HER2-AF488 (#324410, BioLegend), EGFR-FITC conjugated (GeneTex, Cat #GTX11400) and CD45-BV605 conjugated (Biolegend, Cat #304042 (anti-human); Cat #103140 (anti-mouse)) antibodies. For all other models (xenografts), carrying cancer cells stably expressing a GFP-Luciferase reporter, only anti-CD45 staining was performed, while CTCs were identified based on GFP expression. The number of captured CTCs, including single CTCs, CTC clusters and CTC-WBC clusters, was determined while cells were still in the cassette. CTCs were then released from the cassette in DPBS (#14190169, Gibco) onto ultra-low attachment plates (#3471-COR, Corning). Representative pictures were taken at 40× magnification with Leica DM14000 fluorescent microscope using Leica LAS and analyzed with ImageJ.
For tail vein experiments, NOD SCID Gamma (NSG) mice (Jackson Labs) were injected with 1×10^6 BR16-mCherry cells resuspended in 100 μl D-PBS and monitored with IVIS Lumina II (Perkin Elmer). For CTC xenograft mouse model isolation, 1×10^6 LM2-GFP, 1×10^6 BRx50-GFP or 1×10^6 BR16-GFP cells were resuspended in 100 μl of 50% Cultrex PathClear Reduced Growth Factor Basement Membrane Extract (R&D Biosystems, Cat #3533-010-02) in D-PBS and injected orthotopically in NSG mice. Blood draw was performed 4-5 weeks after tumor onset for LM2 cells, 5-6 months after tumor onset for BR16 and 6-7 months after tumor onset for BRx50 cells.

Q: Which mean cluster size (BR16 CTC-derived cells) does the source give for COc1cc([C@@H]2c3cc4c(cc3[C@H](O)[C@H]3COC(=O)[C@H]23)OCO4)cc(OC)c1OC [podofilox] here?
A: significant decrease in mean cluster size

Q: And the mean cluster size [1]?
A: significant decrease in mean cluster size

Q: Which mean cluster size (BR16 CTC-derived cells) does the source give for CC[C@]1(O)C[C@H]2CN(CCc3c([nH]c4ccccc34)[C@@](C(=O)OC)(c3cc4c(cc3OC)N(C=O)[C@H]3[C@@](O)(C(=O)OC)[C@H](OC(C)=O)[C@]5(CC)C=CCN6CC[C@]43[C@@H]65)C2)C1 [vincristine sulfate] here?
A: significant decrease in mean cluster size

Q: What about the mean cluster size [1] of the same molecule?
A: significant decrease in mean cluster size

Q: Which mean cluster size (BR16 CTC-derived cells) does the source give for COc1cc(OC)c(/C=C/S(=O)(=O)Cc2ccc(OC)c(NCC(=O)O)c2)c(OC)c1 [rigosertib] here?
A: significant decrease in mean cluster size

Q: And the mean cluster size [1]?
A: significant decrease in mean cluster size

Q: How did the mean cluster size (BR16 CTC-derived cells) turn out when COc1cc2c(c(OC)c1OC)-c1ccc(OC)c(=O)cc1[C@@H](NC(C)=O)CC2 [colchicine] was run?
A: significant decrease in mean cluster size

Q: What about the mean cluster size [1] of the same molecule?
A: significant decrease in mean cluster size

Q: For C[C@H]1O[C@@H](O[C@H]2[C@@H](O)C[C@H](O[C@H]3[C@@H](O)C[C@H](O[C@H]4CC[C@@]5(C)[C@H](CC[C@@H]6[C@@H]5C[C@@H](O)[C@]5(C)[C@@H](C7=CC(=O)OC7)CC[C@]65O)C4)O[C@@H]3C)O[C@@H]2C)C[C@H](O)[C@@H]1O [digoxin, Digoxin], which “formation of CTC clusters (CTC fold change)” value (LM2 xenografts) is on record?
A: reduced the formation

Q: What about the “formation of CTC-neutrophil clusters (CTC fold change)” value (LM2 xenografts) of the same molecule?
A: reduced the formation

Q: What about the overall survival (LM2 xenografts) of the same molecule?
A: prolonged overall survival

Q: What about the “tumor size / tumor growth rate over time” value (LM2 xenografts) of the same molecule?
A: No significant differences are observed; also recorded: no significant difference

Q: And the overall survival (LM2 xenografts; listed as Digoxin)?
A: prolongs overall survival

Q: What about the “metastasis (metastatic index)” value (BR16 xenografts) of the same molecule?
A: suppresses metastasis

Q: What about the “number of CTC clusters” value (BR16 xenografts) of the same molecule?
A: clear decrease

Q: And the “number of CTC-neutrophil clusters” value (BR16 xenografts)?
A: clear decrease

Q: What about the “tumor size / tumor growth rate over time” value (BR16 xenografts) of the same molecule?
A: No significant differences are observed; also recorded: no significant difference
